Measurements from patent publication US20150040894A1 (VIRGINIA COMMONWEALTH UNIVERSITY, priority 2010, published 2015).
Values belong to the compound of their own block, whether it stands above or below them.

Columns and labels:
[1] = test system: IL-8 secretion from NHBE cells; assay: LPS-induced IL-8 secretion from NHBE cells in culture (ELISA); format: cell-based, human
Description: NHBE cells (Lonza Walkersville, Walkersville, Md.) were plated at 3,500 cells/cm^2 in culture dishes in bronchial epithelial cell growth medium (BEGM) supplemented with the SingleQuot® kit (Lonza) without antibiotics and cultured at 37° C. in a 5% CO2 incubator. We used endotoxin-free media (<0.005 endotoxin units/ml) and second-passage cells for all experiments. Cells were grown to confluence for 6 days. Cultures without antibiotics were then transferred to 6-well or 35 mm dishes coated with type 1 rat-tail collagen and seeded at 3,500 cells/cm^2. The medium was changed every 24 h. To avoid influence of growth factors on cell signaling and IL-8 secretion, cells were cultured in supplement-free bronchial epithelial cell basal medium (BEBM) for 24 h before stimulation. We evaluated cell response at the time of cell confluence rather than normalize to the relative number of cells because cell maturation could affect cell signaling and cytokine secretion, and at confluence, all cells are at similar growth stages. Culture supernatants were collected and centrifuged for 5 min at 200×g and stored at −20° C. until assayed. IL-8 was measured by ELISA (Beckman Coulter, Inc., Brea, Calif.) according to the manufacturer's instructions. Concentrations in each sample were obtained by interpolation from standard curves, and calculated as the mean of the results at the sample dilution. […] We chose to assess cell response at the time of cell confluence rather than normalize to the relative number of cells, because cell maturation could potentially affect cell signaling and cytokine secretion, and at confluence, all cells are at similar growth stages.

[2] = test system: apical and basolateral IL-8 secretion from ALI-conditioned NHBE cells; assay: IL-8 secretion from NHBE cells cultured under air-liquid interface (ALI) condition; format: cell-based, human; conditions: dapsone 1 μg/ml in basolateral medium, LPS 10 μg/ml 24 h
Description: For NHBE cell differentiation, cells were plated at 2.0×10^5 cells/cm^2 onto polycarbonate inserts of 6.5-mm diameter, 0.4-μm pore size and 10-μm thickness (Costar Transwell Clear, Cambridge, Mass., USA) coated with type 1 rat-tail collagen, and cultured with serum-free DMEM/F12 medium containing ITS-A (1.0%; Invitrogen Co., Carlsbad, Calif.), epidermal growth factor (EGF) (recombinant human EGF, 0.5 ng/ml; Invitrogen Co.), triiodothyronine (10 ng/ml; […] Sigma-Aldrich), bovine serum albumin (2.0 μg/ml; Sigma-Aldrich) and bovine pituitary extract (30 μg/ml; Invitrogen Co.). After achieving confluence, the apical medium was removed, and cells were cultured with an air-liquid-interface (ALI) method. The culture medium was changed every 48 h, and cells were maintained at 37° C. in a 5% CO2, for 10-14 days. Culture supernatants were collected and centrifuged for 5 min at 200×g and stored at −20° C. until assayed. IL-8 was measured by ELISA (Beckman Coulter, Inc., Brea, Calif.) according to the manufacturer's instructions. Concentrations in each sample were obtained by interpolation from standard curves, and calculated as the mean of the results at the sample dilution. […] NHBE cells were stimulated with LPS from the apical (AP-LPS) or basolateral side (BL-LPS) for 24 h, and IL-8 secretion levels in both chambers were measured. […]

[3] = test system: IL-8 mRNA expression in NHBE cells; assay: IL-8 mRNA expression by real-time quantitative PCR; format: cell-based, human; conditions: 4 h
Description: For the relative quantification of IL-8 mRNA expression, the expression of glyceraldehyde-3-phosphate dehydrogenase (GAPDH) was served as an internal control. EvaGreen was used as a DNA intercalator dye to monitor amplified DNA quantification, and real-time quantitative PCR curves were analyzed by the CFX Manager™ software (Bio-Rad) in order to obtain threshold cycle (Ct) values for each sample. Quantification was based on a standard curve. Appropriate IL-8 and GADPH forward and reverse primers were used.

[4] = test system: ERK1/2 phosphorylation in NHBE cells; assay: LPS-induced phosphorylation of MAPKs (Western blotting); format: cell-based, human
Description: Membranes were stripped with a stripping buffer (100 mM 2-mercaptoethanol, 2% SDS, and 62.5 mM Tris/HCl pH 6.7) for 30 min at 30° C. The blots were reprobed with anti-p44/42 MAPK, anti-p38 MAPK, or anti-SAPK/JNK antibody (diluted 1:1000 for each), followed by anti-rabbit-IgG HRP secondary antibody (diluted 1:2000). To correct small differences in loading for NF-κB p65, blots were stripped, and reprobed with anti-human β-actin antibody (diluted 1:5000), followed by anti-mouse IgG HRP secondary antibody (diluted 1:5000). Western blot images were scanned and analyzed on NIH Image J software (18).

[5] = test system: NF-κB p65 phosphorylation in NHBE cells; assay: LPS-induced phosphorylation of NF-κB p65 (Western blotting); format: cell-based, human
Description: After stimulation, the plated cells were washed with cold PBS, and then lysed on ice in a modified radio immunoprecipitation buffer (1% Nonidet P-40, 1% sodium deoxycholate, 150 mM NaCl, 10 mM Tris pH 7.5, 5 mM sodium pyrophosphate, 1 mM NaVO4, 5 mM NaF, 1 μg/ml aprotinin, 1 μg/ml leupeptin, and 0.1 mM PMSF) for 15 min and then scraped from the dishes. DNA was sheared by passing the lysate though a 27-gauge needle, and insoluble material was removed by centrifugation at 20,000 g for 15 min at 4° C. The protein concentration of the resulting supernatant was quantified by the DC protein assay (Bio-Rad, Hercules, Calif.). Equal amounts of protein extracts were loaded on a 12% SDS-PAGE mini gel and transferred to a nitrocellulose membrane (Bio-Rad). Membranes were blocked with blocking buffer (150 mM NaCl, 20 mM Tris, and 0.1% Tween 20, pH 7.6) containing 5% nonfat dry milk at 4° C. overnight. Subsequently, membranes were rinsed and incubated with the primary antibody: phospho (p)-p44/42 MAPK (Thr202/Tyr204) (diluted 1:2000), p-p38 MAPK (Thr180/Tyr182) (diluted 1:1000), p-SAPK/JNK (Thr183/Tyr185) (diluted 1:1000), or p-NF-κB p65 rabbit polyclonal IgG (diluted 1:1000) (Cell Signaling Technology), for 2 h at room temperature. The membranes were then incubated at room temperature for 1 h with the anti-rabbit IgG HRP secondary antibody (diluted 1:2000). Subsequently, the blots membranes were developed with LumiGLO chemiluminescent substrate peroxide (Cell Signaling Technology).
Membranes were stripped with a stripping buffer (100 mM 2-mercaptoethanol, 2% SDS, and 62.5 mM Tris/HCl pH 6.7) for 30 min at 30° C. The blots were reprobed with anti-p44/42 MAPK, anti-p38 MAPK, or anti-SAPK/JNK antibody (diluted 1:1000 for each), followed by anti-rabbit-IgG HRP secondary antibody (diluted 1:2000). […] Western blot images were scanned and analyzed on NIH Image J software (18).
The […] phosphorylation of NF-κB p65 was measured by Western blotting. The band intensity was calculated with NIH Image J software.

[6] = Ferret activity, appetite and weight after tracheal LPS with and without dapsone; format: in vivo; conditions: LPS 5 days, 5-day dapsone treatment (oral or nebulized) vs vehicle
Description: (§1) Twenty adult male ferrets (weight, 1.3 to 2.0 kg) were obtained from Marshall Farms (Rose, N.Y.). Ferrets were anesthetized with 40 mg/kg ketamine and 5 mg/kg xylazine, and exposed to endotoxin for 30 min once daily for 5 days by incubating with a 3.0 uncuffed endotracheal tube (ETT) coated with 10 mg of LPS mixed in 300 μl water soluble K-Y jelly (Johnson & Johnson, New Brunswick, N.J.) (Abanses et al., 2009). As controls, K-Y jelly without LPS was used in two ferrets.
(§2) This is equivalent to the oral dose used to treat persons with skin disease. For aerosol inhalation, ferrets were shallowly intubated with ETT, which was placed 1 cm below the larynx. […] Ferrets (body weight 1.5 kg) have 0.3-0.4 ml total lung lining fluid volume. Therefore, the dose delivered to the lung, is estimated to be 0.1 to 1.0 μg in this system given reported nebulization efficiency.

[7] = test system: LPS-inflamed ferret trachea; assay: Intraepithelial neutrophil accumulation in LPS-inflamed ferret trachea; format: in vivo; conditions: 5 days
[8] = test system: LPS-inflamed ferret trachea; assay: Mucociliary transport (MCT) on excised tracheal segments; format: in vivo; conditions: 5 days
Description: as §1
as §2, with “efficiency. […]” for “efficiency.”
A tracheal segment was placed on a piece of gauze saturated with Ringer's solution in a chamber in which the relative humidity was maintained at 95 to 100% and the temperature was maintained at 22° C. to 24° C. MCT was measured by focusing a tracheal segment under a microscope with gradicule (grid line) eyepiece and recording the transport time of the leading edge of very fine shavings of plastic that were placed on the tracheal epithelium. […]

[9] = test system: IL-13 induced goblet cell hyperplasia in NHBE cells; assay: In vitro model of IL-13 induced goblet cell hyperplasia, ALI-conditioned NHBE cells; format: cell-based, human
Source text: Globlet cells are columnar epithelial cells whose sole function is to secrete mucin, which dissolves in water to form mucus. […] An in vitro model of goblet cell hyperplasia was developed using normal human bronchial epithelial (NHBE) cells cultured under air-liquid interface (ALI) conditions.

[10] = test system: steroid-dependent asthma patients; conditions: orally administered dapsone; cited from earlier work
[11] = in vivo; cited from earlier work
IL-8 release from NHEK = conditions: cited from earlier work

ferret activity or appetite [6]: no measurable effect | ferret weight over 9 days [6]: no difference | growth of ALI-conditioned NHBE cells ([9]; dapsone 3 μg/ml, no IL-13): no measurable effect
Structure (SMILES): Nc1ccc(S(=O)(=O)c2ccc(N)cc2)cc1 [dapsone, 4,4′-diaminodiphenyl sulfone]
basal IL-8 secretion ([1]; dapsone 1 μg/ml, 48 and 72 h, no LPS): did not affect | LPS-induced IL-8 secretion over time ([1]; dapsone 1 μg/ml, LPS 10 μg/ml, up to 72 h): significantly and persistently decreased | LPS-induced IL-8 secretion ([1]; dapsone 0.3, 1 or 10 μg/ml, LPS 10 μg/ml, 24 h, P<0.01 for each): suppressed | basolateral IL-8 increased by AP- or BL-LPS ([2]; P<0.001 AP-LPS, P<0.01 BL-LPS): inhibited | apical IL-8 level increased by AP-LPS ([2]; P<0.05): inhibited | basal IL-8 mRNA level ([3]; dapsone 1 μg/ml): did not influence | LPS-induced IL-8 mRNA over expression ([3]; dapsone 1 and 10 μg/ml, LPS 10 μg/ml, P<0.05 for each): significantly inhibited | LPS-induced ERK1/2 phosphorylation at 1 h ([4]; dapsone 1 μg/ml, LPS 10 μg/ml, 1 h, P<0.05): inhibited | LPS-induced ERK1/2 phosphorylation after 4 h ([4]; dapsone 1 μg/ml, LPS 10 μg/ml, after 4 h): this effect disappeared | NF-κB p65 activation ([5]; dapsone 0.3 μg/mL): did not significantly inhibit | LPS-induced NF-κB p65 phosphorylation ([5]; dapsone 1 μg/ml, LPS 10 μg/ml, 15 min to 2 h, to the control level): significantly inhibited | dose dependence of inhibition of NF-κB p65 phosphorylation ([5]; dapsone 0.3, 1 and 10 μg/ml (P=0.16 for 0.3; P<0.01 for 1 and 10 μg/ml)): dose-dependent | neutrophil accumulation in tracheal epithelium ([7]; nebulized dapsone 0.5 mg/ml, 15 min once daily, P<0.05): significantly inhibited | neutrophil recruitment in tracheal epithelium ([7]; oral dapsone 2 mg/kg daily, P=0.3): tended to inhibit | MCT velocity ([8]; aerosol dapsone 0.5 mg/ml, 15 min once daily, P=0.007 vs LPS control, normal approximately 7 mm/min): 6 mm/min | MCT ([8]; oral dapsone 2 mg/kg daily, P=0.09, LPS alone 1-3 mm/minute): the increase was not significant | amount and extent of IL-13 induced goblet cell hyperplasia ([9]; dapsone 10 μg/ml, vs control cell cultures): decreased | patients able to substantially reduce or stop taking steroids [10]: 9 out of 10 | therapeutic serum levels [11]: 0.5 to 5 µg/mL | basal IL-8 level (IL-8 release from NHEK; NHEK): did not depress | bullous pemphigoid IgG-mediated IL-8 release (IL-8 release from NHEK; dapsone in a therapeutic concentration): inhibited

Structure (SMILES): C[C@@H]1C[C@H]2[C@@H]3CCC4=CC(=O)C=C[C@]4(C)[C@@]3(F)[C@@H](O)C[C@]2(C)[C@@]1(O)C(=O)CO [DEX, dexamethasone]
decrease of basal IL-8 mRNA level ([3]; DEX 0.1 μg/ml, P<0.05): ~40%

Structure (SMILES): COc1cccc(-c2cc(=O)c3ccccc3o2)c1N [PD98059, 2′-amino-3′-methoxyflavone]
LPS-induced IL-8 secretion ([1]; PD98059 20 μM added 1 h before LPS): did not inhibit | LPS-induced ERK1/2 phosphorylation ([4]; PD98059 20 μM added 1 h before LPS 10 μg/ml, 4 h): abolished
